Earlier results on 5 compounds are cited in patent US20220142894A1, “A PROCESS OF COLORING KERATINOUS MATERIAL COMPRISING THE USE OF AN ORGANOSILICON COMPOUND, AN EFFECT PIGMENT, AND A SEALING REAGENT V” (Henkel AG & Co. KGaA, priority 2019, published 2022).

For the data set the following is noted: 25° C.

In the case of `CCN(Cc1cccc(S(=O)(=O)[O-])c1)c1ccc(C(=C2C=CC(=[N+](CC)Cc3cccc(S(=O)(=O)[O-])c3)C=C2)c2ccccc2S(=O)(=O)[O-])cc1.[Na+].[Na+]` [Acid Blue 9], the solubility in water entry is “more than 20 % by weight”.

As for `O=S(=O)([O-])c1ccc(N=Nc2c(O)ccc3ccccc23)cc1.[Na+]` [Acid Orange 7, sodium salt of 4-[(2-hydroxy-1-naphthyl)azo]benzene sulphonate], the solubility in water result is recorded as “more than 7 g/L”.

In the case of `Nc1cc(S(=O)(=O)[O-])cc2cc(S(=O)(=O)[O-])c(N=Nc3ccccc3)c(O)c12.[Na+].[Na+]` [Acid Red 33, disodium salt of 5-amino-4-hydroxy-3-(phenylazo)-naphthalene-2,7-disulphonate], the solubility in water was 2500 µg/mL.

As to `O=C([O-])c1c(Cl)c(Cl)c(Cl)c(Cl)c1-c1c2c(Br)cc(=O)c(Br)c-2oc2c(Br)c(O)cc(Br)c12.O=C([O-])c1c(Cl)c(Cl)c(Cl)c(Cl)c1-c1c2c(Br)cc(=O)c(Br)c-2oc2c(Br)c(O)cc(Br)c12.[Na+].[Na+]` [Acid Red 92, disodium salt of 3,4,5,6-tetrachloro-2-(1,4,5,8-tetrabromo-6-hydroxy-3-oxoxanthen-9-yl)benzoic acid], the solubility in water entry is listed as “greater than 10 g/L”.

As to `O=C([O-])C1=NN(c2ccc(S(=O)(=O)[O-])cc2)C(=O)C1N=Nc1ccc(S(=O)(=O)[O-])cc1.[Na+].[Na+].[Na+]` (centres unmarked) [Acid Yellow 23, trisodium salt of 4,5-dihydro-5-oxo-1-(4-sulfophenyl)-4-((4-sulfophenyl)azo)-1H-pyrazole-3-carboxylic acid], the “solubility in water (in words)” value was “highly soluble”.
